The numbers were not newly measured in article PMC4228152 (BMC Pulmonary Medicine, 2014), which cites them from elsewhere.

Each structure is given as a SMILES string. Read-outs that look alike come from different tables or passages of the source.

The test system of series [1] is allergen induced asthmatic response.
Series [2] relates to PDE4.
Series [3] concerns PDE4A.
The test system of series [4] is PDE4B.
For series [5] the following is noted: administered orally.
In series [6] the test system is monocytes. More on the design: method as in PMID 11865966. Conditions: subjects after 4 weeks treatment.
Series [7] relates to PDE4D.
Setting [8] is: inhaled inhibitor, read-out: IC50.

Take `CS(=O)(=O)Nc1ccc(C(=O)O[C@@H](Cc2c(Cl)c[n+]([O-])cc2Cl)c2ccc(OC(F)F)c(OCC3CC3)c2)cc1OCC1CC1` [CHF6001]: the “fall in LAR” value in series [1] (inhaled) was 30%. In addition, the IC50 in series [2] (setting [8]) was 0.026 nM.
On to `COc1cccc(Nc2c(C(N)=O)cnc3c(C)cc(S(=O)(=O)c4cccc(C(=O)N(C)C)c4)cc23)c1` [GSK256066], for which, in series [1] (inhaled), the “reduction in LAR” value is listed as 34%. The IC50 in series [2] (setting [8]) is 0.0032 nM.
For `O=C(Nc1c(Cl)cncc1Cl)c1ccc(OC(F)F)c(OCC2CC2)c1` [roflumilast], the IC50 in series [3] is […]; in series [4], […]; in series [2] (average of three isoforms, read-out: IC50 average for PDE4-A, -B and -D), 0.5 nM; in series [7] it was […]. For the same compound, in series [5], the “mean Cmax” value is given as 2,000 pg/ml. For the same compound, in series [1] (oral), the “reduction in LAR AUC” value is listed as 43%. The “inhibition of the maximal fall in the EAR” value in series [1] (orally administered) is on record as 14-28%. Besides, the “inhibition of the maximal fall in the LAR” value in series [1] (orally administered) is reported as 16-43%. Further, in series [6], the “inhibition of LPS-induced TNFα release in monocytes ex vivo” value was 1.3 fold.
